According to PubChem BioAssay AID179 (DTP/NCI, 2004):
Where “and” joins values, the source holds several entries; their conditions need not be identical. Equal entries are not always repeated. Calls of active or inactive are those of the source.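 The calls were made as follows: active = compounds giving half or more protection of infected cells from virus-caused growth loss, again on retest; inactive = the rest.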 Where a SMILES comes first, the peptide text is derived from it.

Test system: CEM cells HIV-1 protection, formazan growth assay
Assay: NCI AIDS Antiviral Assay
Conditions: for IC50: measured here: growth of uninfected CEM cells
How it was run: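 Five concentrations of each compound were applied to infected and uninfected human CEM cells. Protection from HIV-1 was judged from growth measured with a soluble formazan assay.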

| Compound | EC50 [µM] | IC50 | outcome |
| --- | --- | --- | --- |
| CC12CCC([C@H](C(O)C3CCCCC3)C1=O)C2(C)C (some centres undefined) | > 200 | 52.5 µM |  |
| CCCn1c(=O)c2nn3c(=O)n(CCC)c(=O)c3nn2c1=O | > 200 | > 200 µM |  |
| O=C1c2ccccc2-c2nnc3c(c21)Cc1ccccc1C3 | > 200 | > 200 µM |  |
| COC1=C(C2=C(OC)C(=O)c3cc4c(c(O)c3C2=O)C(=O)OC(C)C4)C(=O)c2c(cc3c(c2O)C(=O)OC(C)C3)C1=O (centres undefined) |  |  | inactive |
| [N-]=[N+]=Nc1c(-c2ccccc2)c(Cl)nc2ccccc12 | > 200 | 20.4 µM |  |
| CC(=O)Oc1c(Br)cc(-c2oc(-c3cc(Br)c(OC(C)=O)c(Br)c3)c3ccccc23)cc1Br | > 100 | 38.9 µM |  |
| Cc1ccc2c(c1)C1(OC(=O)c3ccccc31)c1ccc(F)cc1O2 (centres undefined) | > 91.2 | 22.9 µM |  |
| CCCCNC(C)(C)C(SSSC(C)=O)c1ccco1 (centres undefined) | > 200 | 56.2 µM |  |
| CC1(C)OC(=O)C(=Cc2cccc(Br)c2)C(=O)O1 | > 794 | 1.86 µM |  |
| NC(C(=O)O)C1=CCCCCC1 (centres undefined) | > 200 | > 200 µM |  |
| Cc1c(N=O)cc(C(C)C)c(O)c1I | > 200 | 27.5 µM |  |
| O=C(NC(CSC(c1ccccc1)c1ccccc1)C(=O)Oc1ccc([N+](=O)[O-])cc1)OCc1ccccc1 (centres undefined) | > 200 | 85.1 µM |  |
| Nc1nc(NCCOCP(=O)(O)O)c([N+](=O)[O-])c(=O)[nH]1 | 178 | > 200 µM |  |
| Nc1nc(N)nc(-c2cnc3ccccc3c2)n1 | > 200 | > 200 µM |  |
| CC(C)CC(NC(=O)C(Cc1ccc(O)cc1)NC(=O)C(CO)NC(=O)C(C)NC(=O)C(CO)NC(=O)C(CCC(N)=O)NC(=O)C(NC(=O)C(N)CCC(=O)O)C(C)C)C(=O)NC(CCCN=C(N)N)C(=O)NC(CCCCN)C(=O)O (centres undefined) (H-EVQSASYLRK-OH; configuration not given here) |  |  | inactive |
| CC(=O)NC(CC(C)C)C(=O)NC(Cc1ccccc1)C(=S)N1CCCC1 (centres undefined) | > 174 | > 174 µM |  |
| [N-]=[N+]=C(C(=O)C(=[N+]=[N-])C(=O)c1ccccc1)C(=O)c1ccccc1 | > 112 | > 112 µM |  |
| CCSc1nnc(CSc2nc(-c3ccccc3)c(-c3ccccc3)[nH]2)n1-c1ccccc1 | > 21.4 | > 21.4 µM |  |
| COC(=O)c1c2c(cc3c1CC1(Cc4ccc(C(C)=O)cc4C1)C3)CCC2 (centres undefined) | > 200 | > 200 µM |  |
| Cc1ccc(S(=O)(=O)n2ccc(-c3ccc4ccn(S(=O)(=O)c5ccc(C)cc5)c4c3)c2)cc1 | > 200 | 87.1 µM |  |
| Oc1c(C2=N[C@H]3CCCC[C@@H]3N2)ccc2ccccc12 | > 200 | > 200 µM |  |

| Compound | EC50 [µM] | IC50 | outcome |
| --- | --- | --- | --- |
| O=C1NC(=O)C2C3C=CC(C12)C1C2C(=O)NC(=O)C2C31 (centres undefined) | > 95.5 | > 95.5 µM |  |
| CC(=O)OCC(OC(C)=O)C(OC(C)=O)C(/C=N\Nc1nc2ccccc2c(=O)[nH]1)=N\Nc1nc2ccccc2c(=O)[nH]1 (centres undefined) | > 200 | > 200 µM |  |
| NNC1=Cn2c(nc3ccccc32)NN1 |  |  | inactive |
| COC(F)(F)C12CC3CC(CC(C3)C1)C2 |  |  | inactive |
| C/C(=N\NC(=S)N1CCN(c2ccccn2)CC1)c1ncccn1 | > 39.8 | 0.0479 µM |  |
| CCOC(=O)C(NC(=O)CC)(Nc1cc(C)on1)C(F)(F)F (centres undefined) | > 200 | > 200 µM |  |
| CONC(C)=O | > 200 | > 200 µM |  |
| Cc1cc(Cl)ccc1NC(=O)C(=O)Cc1ccc([N+](=O)[O-])c([N+](=O)[O-])c1CC(=O)C(=O)Nc1ccc(Cl)cc1C | > 309 | 129 µM |  |
| Cc1ccc2c(n1)NC(=O)C(Cc1ccccc1)(N=[N+]=[N-])C2=O (centres undefined) | > 200 | > 200 µM |  |
| COc1cc(C(C)=O)cc(C(=O)N(C(C)C)C(C)C)c1[Si](C)(C)C | > 100 | > 100 µM |  |
| NC1OC(COC(=O)c2ccccc2)C(O)C(OC(=O)c2ccccc2)C1OC(=O)c1ccccc1 (centres undefined) | > 200 | 0.933 µM |  |
| CC12C=CC(=O)C=C1CCC1C3CCC(O)(C(=O)CO)C3(C)CC(O)C12F (centres undefined) |  |  | inactive |
| O=Nn1ccccc1=Nc1ccccc1 | > 200 | 117 µM |  |
| COC[C@@]12CCC(OC)C34[C@@H]5C[C@@]6(O)C(OC(=O)c7ccccc7)[C@@H]5[C@@]5(O[C@@H]5[C@@H]6OC)[C@@H](C(OC)[C@@H]31)[C@@H]4N(C)C2 (some centres undefined) |  |  | inactive |
| O=C(O)CCC1COc2ccccc2O1 (centres undefined) | > 200 | > 200 µM |  |
| Cc1ccc(S(=O)(=O)SS(=O)(=O)c2ccc(C)cc2)cc1 | 13.8 | 52.5 µM |  |
| N#CSCc1ccc(Cl)cc1 | > 28.2 | 16.2 µM |  |
| Cc1cc(OP2(=O)Nc3ccccc3-c3ccccc3N2)ccc1Cl | > 70.8 | 1.26 µM |  |
| S=C(N/N=C/c1ccccn1)N1CCCCCC1 | > 0.2 | 0.0105 µM |  |
| N#Cc1nc(-c2cnccn2)oc1N | > 200 | 182 µM |  |
| C1CCCCC/C2=C(\CCCC1)CSCCCS2 | > 200 | 58.9 µM |  |

| Compound | EC50 [µM] | IC50 | outcome |
| --- | --- | --- | --- |
| CCN(CC)CCN.[O-][Cl+3]([O-])([O-])[O-].[Pd+2].c1ccc(-c2ccccn2)nc1 | > 200 | 32.4 µM |  |
| CCN(CCCl)CCCNc1c2ccccc2nc2ccc(OC)cc12 | > 20 | 0.295 µM |  |
| CC(Oc1ccc(Oc2cnc3ccc(Cl)cc3n2)cc1)C(=O)O (centres undefined) | > 141 | 17.4 µM |  |
| CCN(CC)CC(=O)Nc1cccc(Cl)c1 | > 200 | > 200 µM |  |
| c1ccc([P+](Cc2ccco2)(c2ccccc2)c2ccccc2)cc1 | > 200 | 3.39 µM |  |
| CC12CCCN1C(=O)C1(C)CCCN1C2=O (centres undefined) | > 200 | > 200 µM |  |
| O=C1c2cn[nH]c2N=C(Nc2ccccc2)C1N=Cc1ccc([N+](=O)[O-])cc1 (centres undefined) | > 200 | 102 µM |  |
| Cc1ccc(S(=O)(=O)N=NC=C2c3ccccc3N(O)c3ccccc32)cc1 |  |  | inactive |
| OCC1C(CO)C2CC1C1N=NN(c3ccccc3)C21 (centres undefined) | > 324 | > 324 µM |  |
| Cc1ccc(S(=O)C[C@@]2(C(F)F)NC(=O)NC2=O)cc1 (some centres undefined) | > 200 | 178 µM |  |
| CCc1n[nH]c(=O)n1CCCCCCCCCCCCn1c(CC)n[nH]c1=O | > 200 | 41.7 µM |  |
| COC1CC(C)(N)C(O)C(C)O1 (centres undefined) | > 200 | > 200 µM |  |
| CCOC(=O)CN1CCC(C2(c3cc4ccccc4[nH]3)OCCO2)CC1 | > 363 | > 363 µM |  |
| CCOc1ccc(Nc2ccc(N=Nc3c(N)c(C)cc(N=Nc4ccc(-c5ccc(N=Nc6ccc(O)c(C(=O)O)c6)cc5)cc4)c3N)cc2S(=O)(=O)O)cc1 | 10.7 | 79.4 µM |  |
| C#CCN1C(=O)NC(c2ccccc2)(c2ccccc2)C1=O.[C-]#[O+].[C-]#[O+].[C-]#[O+].[C-]#[O+].[C-]#[O+].[C-]#[O+].[Co].[Co] | > 200 | 8.91 µM |  |
| CC(=O)NC1C(OCc2ccccc2)OC(COC(=O)CCCCCCCCCCNc2ccc([N+](=O)[O-])c3[nH]c4ccccc4c(=O)c23)C(O)C1OC(C)C(=O)NC(C)C(=O)NC(CCC(N)=O)C(=O)OCc1ccccc1 (centres undefined) | > 166 | > 166 µM |  |
| COC1=CC(=O)C2C(C1=O)C(c1ccccc1)[C@H]2C (some centres undefined) | > 372 | 22.9 µM |  |
| COc1cccc2c1CCc1sc(CN3CCN(C)CC3)nc1-2 | > 200 | 30.2 µM |  |
| C=CO/N=[N+](\[O-])N(CC)CC | > 200 | > 200 µM |  |
| N#C/C(=C\c1ccc2c(c1)OCO2)c1ccccc1 | > 200 | 41.7 µM and > 28.8 µM |  |
| CC(=O)O[C@H]1CC[C@H]2[C@@H]3[C@H](C)CC4=CC(=O)CCC4[C@H]3CC[C@]12C (some centres undefined) | > 200 | 69.2 µM |  |

| Compound | EC50 [µM] | IC50 | outcome |
| --- | --- | --- | --- |
| COc1ccc(C[C@H]2COC(=O)[C@@H]2Cc2cc(OC)c(OC)c(OC)c2)cc1OC | > 200 | 115 µM |  |
| [O-]c1c2cc(-[n+]3c(-c4ccccc4)cc(-c4ccccc4)cc3-c3ccccc3)cc1COCCOCCOCCOCCOC2 | > 200 | 36.3 µM |  |
| Clc1ccc2nc3nc(-c4ccccc4)c(-c4ccccc4)nc3nc2c1 | > 19.5 | > 19.5 µM |  |
| CC(=O)NC(=O)C(C(C)=O)c1ccccc1 (centres undefined) | > 1150 | > 1150 µM |  |
| O=C(Nc1ccc2c(O)c(N=Nc3ccc(S(=O)(=O)O)cc3)c(S(=O)(=O)O)cc2c1)Nc1ccc2c(O)c(N=Nc3ccc(S(=O)(=O)O)cc3)c(S(=O)(=O)O)cc2c1 | 8.91 | 110 µM |  |
| NC(N)=NCCN1CCCCCCC1 | > 200 | > 200 µM |  |
| C1=CC2CC1C1C(=C3Sc4ccccc4S3)c3nccnc3C(=C3Sc4ccccc4S3)C21 (centres undefined) | > 14.5 | > 14.5 µM |  |
| Cc1cc2c(C)nn(Cc3ccccc3)c2c(C(N)=O)c1C |  |  | inactive |
| Nc1ccc(C(=O)N/C(=C\c2cccc([N+](=O)[O-])c2)c2nc3[nH]c(=S)[nH]c(=O)c3[nH]2)cc1 |  |  | inactive |
| COC(=O)c1c(C)cccc1/C=C1\Cc2ccc(C)c(C)c2C1=O | > 200 | > 200 µM |  |
| CC(=O)Nc1cc(Nc2cc(=O)[nH]c(=O)[nH]2)ccc1C | > 200 | > 200 µM |  |
| COc1cc(OC)c2c(c1)OC(c1ccccc1)CC2=O (centres undefined) | > 200 | > 200 µM |  |
| Cn1cc(NC(=O)c2cc(NC(=O)[C@H]3CCC(N)=N3)c[nH]2)cc1C(=O)NCCC(=N)N |  |  | active |
| c1ccc(-c2ccccc2SSc2ccccc2-c2ccccc2)cc1 | > 200 | 5.37 µM |  |
| O=C1O[C@H](COC(=O)c2ccccc2)[C@@H](OC(=O)c2ccccc2)C=C1OC(=O)c1ccccc1 | > 200 | 20.4 µM |  |
| CCOC(=O)c1c(NC(=O)c2ccccc2)sc2c(=O)oc(-c3ccccc3)nc12 | > 24 | > 24 µM |  |
| COc1ccc(/C=C(\Cl)c2ccc(OC)cc2)cc1 | > 200 | > 200 µM |  |
| O=C1ON=C2C3CC4CC12CC1(C3)C(=O)ON=C41 | > 200 | > 200 µM |  |
| O=C(Nc1ccc(/C=C\c2ccc([N+](=O)[O-])cc2S(=O)(=O)O)c(S(=O)(=O)O)c1)OCc1ccccc1 | > 200 | > 200 µM |  |
